The values that follow come from patent US12729368B2, “Methods and compositions for generating oligodendrocyte progenitor cells” (Trailhead Biosystems Inc., priority 2022, dated 2026).

Common to all, as to type: cell-based, human
Experiment [1] concerns OPCs. In words: HD-DoE 8-factor model for stage 4 on OPCs. The settings on record: optimized for maximal expression of CNP at 1339. The method, then: (§1) To engineer the recipe of stage 4 of differentiation, 48 or 96 different combinations of effectors generated using Design-of-Experiments compression through D-optimality were robotically prepared. The effector combinations were prepared in a basal media and were subsequently added to the cells, which were treated with the stage 1, stage 2 and stage 3 differentiation media as described in the earlier examples to generate OPCs. […] Solutions within the tested space could then be explored to address desirability.

Experiment [2] relates to OPCs. In words: HD-DoE 12-factor model for stage 4 on OPCs, 6 days in culture. The method, then:
as §1, with “desirability. […] Benarroch (2009) Neurology 72:1779-1785; Shi et al. (2019) Exp Ther Med, 18:1258-1266).” for “desirability.”

Experiment [3] relates to pre-OPCs. Kind of experiment: HD-DoE 8-factor model for stage 2 (version 2) on pre-OPCs. To be noted: negative impact. The method, then:
To engineer the recipe of stage 2 of differentiation, cells were first cultured in the stage 1 media described in Example 1, then, 48 or 96 different combinations of effectors generated using Design-of-Experiments compression through D-optimality were robotically prepared. The effector combinations were prepared in a basal media and were subsequently added to the cells, which were then allowed to differentiate. Three days later RNA extraction was performed, and gene expression was obtained using quantitative PCR analysis. The data was normalized and modeled using partial least squares regression analysis to the effector design, resulting in the generation of gene-specific models, which after model tuning for maximal predictive power, provided explanation of the effectors ability to control the expression of individual genes, combinatorically, and individually. Solutions within the tested space could then be explored to address desirability.
At this point, due to short duration of culture (only six days in vitro) we decided to focus on maximal expression of OLIG2 and maintenance of high expression of NKX2-2, while initiating expression of SOX10, OLIG1 and PDGFRa, to guide the cells towards oligodendrocyte fate (Emery and Lu (2015). Cold Spring Harb Perspect Biol. 7:a020461; Perlman et al. (2020). Glia 68:1291-1303; Goldman and Kuypers (2015) Development 142:3983-95). In one 8-factor model, the individual and combinatorial impact of CHIR99021 (a WNT pathway agonist), AGN193109 (an RA pathway antagonist), FGF-2 (an FGFR agonist), Purmorphamine (an SHH pathway agonist), AICAR (an AMPK agonist), GW3965 (an LXR pathway agonist), GW590735 (a PPAR-a agonist) and AZD3147 (a mTOR antagonist) on further differentiation of cells were tested.

Experiment [4] concerns pre-OPCs. In words: HD-DoE second 12-factor model for stage 2 (Purmorphamine with TTNPB, Biotin, Insulin etc.). To be noted: optimized for OLIG2; input for minimal expression (negative). The method, then:
To gain more information about the effect of Purmorphamine on differentiation of pre-OPCs to a more committed cell population, we tested this factor in two other models. In a 12-factor model, we included Purmorphamine, FGF2, AGN193109 and CHIR99021 along with 8 new inputs including TTNPB, Biotin, Insulin, propionate, DBZ, Yhhu3792, LDN193189 and Y-27632. […] In another 12-factor model, Purmorphamine was tested along with A 8301, CHIR99021, Dexamethasone, T3+T4, PD0325901, ZM336372, DBZ, BMP7, PD173074, SANT-1 and PDGF-AA.

For experiment [5], the system named is cells cultured in stage 1 and stage 2 differentiation media. In words: Two further HD-DoE models optimized for SOX10 (IGF-1, FGF-2, AGN193109). The text has this: According to literature, proteins such as FGF-2, IGF-1, PDGF-AA and NT-3 play an important role in oligodendrocyte differentiation (Goldman and Kuypers (2015) Development 142:3983-95). In the first model, FGF-2 had positive regulatory impact only on the expression level of SOX10 and IGF-1 on PDGFRa. Therefore, to further understand the impact of IGF-1 and FGF-2 on differentiation of cells and confirm their positive role, we included these factors in two other models and optimized the models for maximum expression of SOX10. This gene is one of the main transcription factors of oligodendrocytes, along with OLIG2 and NKX2-2 that has shown the potential to commit the stem cells to oligodendrocytes in reprogramming efforts (Wang et al, (2014) Proc Natl Arad Sri USA 111:E2885-94; García-León et al. (2018) Stem Cell Reports 10:655-672).

The subject of experiment [6] is pre-OPCs. Kind of experiment: HD-DoE 12-factor model for stage 2 (version 1), 3 days on stage 1 pre-OPCs. To be noted: optimized for maximum expression of OLIG2 at 1841.6; negative impact. The text has this:
To engineer the recipe of stage 2 of differentiation, cells were first cultured in the stage 1 media described in Example 1 and then treated with combinations of 8 or 12 factors for 3 days and the gene expression of cells in each condition was modeled. At this point, due to short duration of culture (only six days in vitro), we decided to focus on maximal expression of OLIG2 and maintenance of high expression of NKX2-2, while initiating expression of SOX10, OLIG1 and PDGFRa, to guide the cells towards oligodendrocyte fate (Emery and Lu (2015). Cold Spring Harb Perspect Biol. 7:a020461; Perlman et al. (2020). Glia 68:1291-1303; Goldman and. Kuypers (2015) Development 142:3983-95).
In one 12-factor model, the individual and combinatorial impact of SUN 11602 an agonist for FGF signaling pathway, FGF2, Activin A an activator of one of the receptors of TGF-b superfamily, A 8301, an inhibitor of TGF-b pathway, CHIR99021 a WNT activator, AGN193109 a RA antagonist, MK2206 an AKT inhibitor, Purmorphamine an agonist of SHH signaling pathway, AZD3147 an antagonist of mTOR pathway, MHY1485 an agonist of mTOR pathway, SC79 an agonist of AKT pathway and G06983 an inhibitor of PKC pathway, were tested.
Dynamic profile analysis was used to assess the expression levels of other genes of interests, such as NKX2-2, OLIG1 and SOX10, while the model is maximized for OLIG2. Activin A and SUN 11602 were brought down to zero due to their very low factor contribution. We observed when the model is optimized, the expression level of NKX2-2 is at 3000, PDGFRa at 1000, OLIG1 at 80 and SOX10 at 15 (FIG. 12).

Experiment [7] deals with cells cultured in stage 1 and stage 2 differentiation media. In words: HD-DoE 8-factor model for stage 3 (version 2). The method, then: To further differentiate the cells to an oligodendrocyte progenitor identity, additional HD-DoE experiments were performed on the cells that were cultured in stage 1 and stage 2 differentiation media. After 3 days, gene expression of cells in different combinatorial conditions were investigated. At this time, we focused on maximal expression of signature oligodendrocyte progenitor genes such as SOX10, OLIG1 and PDGFRa (Goldman and Kuypers (2015) Development 142:3983-95: Marques et al. (2016) Science 352:1326-1329). In one 8-factor model, individual and combinatorial effects of TTNPB (an RA agonist), CHIR99021, FGF-2, IGF-1, AGN193109, Purmorphamine, MHY1485 (a mTOR pathway agonist) and SC79 (an AKT pathway agonist) were tested to guide the cells toward a SOX10/PDGFRa positive population. […] CHIR99021 was also positive, with a factor contribution of 8.1 (FIG. 33).
Other positive factors were IGF-1, with a factor contribution of 11.2, CHIR99021, with a factor contribution of 8.5 and TTNPB, with a factor contribution below 1 (FIG. 34).
To confirm the impact of TTNPB, FGF-2 and IGF-1 on a bigger scale, we investigated the expression profile of a larger group of genes defining late oligodendrocyte progenitor population, such as ID2, CSPG4, FYN, SOX8, PLP1 and BCAN (Perlman et al. (2020). Glia 68:1291-1303; Goldman and Kuypers (2015) Development 142:3983-95; van Tilborg et al. (2018) Glia 66:221-238) and neuronal genes such as NEUROD1, NEUROG1 and NEUROG2 in presence of IGF-1, FGF-2 or TTNPB.

[8] abbreviates: optimized for CNP at 1790, positive.
The mark [9] stands for this setting: optimized for CNP at 1790, negative impact.

Where “and” joins values, the source holds several entries; their conditions need not be identical. Equal values may be shown once.

Turning to Insulin: insulin receptor agonist, the factor contribution in experiment [1] (positive) is 10; in experiment [2] (setting [8]), 3; in experiment [2] (optimized for PLP1 at 3600, positive), 13 and 13.2.
`Cc1ccc(C2=CCC(C)(C)c3ccc(C#Cc4ccc(C(=O)O)cc4)cc32)cc1` [AGN193109]: the factor contribution in experiment [3] (optimized for maximum expression of OLIG1 at 454.7) is listed as 25.3; in experiment [3] (optimized for maximum expression of OLIG2 at 3325), 25.8; in experiment [4], 18.3; in experiment [5] (increasing level of SOX10, positive effect), 16; in experiment [6], 23.2.
On to “IGF-1: IGFR activator (insulin-like growth factor 1)”, for which the factor contribution entry is reported as “below 1” in experiment [1] (positive); 5 in experiment [2] (setting [8]); 11.2 in experiment [7] (optimized for maximum expression of PDGFRa at 853.4, positive). In addition, the “effect on late OPC genes and neuronal genes” value in experiment [7] (factor plots vs concentration) was “expression levels of OPC genes increased as the concentration of IGF-1 increased, while neuronal genes decreased”. For the same compound, in experiment [5] (two other models optimized for SOX10), the “impact on the expression level of SOX10” value is on record as “positive impact”.
As to `N[C@@H](Cc1cc(I)c(Oc2ccc(O)c(I)c2)c(I)c1)C(=O)O` [T3], the factor contribution in experiment [1] (positive) was 18; in experiment [2] (setting [9]), 1.2. In addition, the “effect on other OL genes and neuronal gene NeuroG1” value in experiment [2] (factor effect plots) is “can upregulate other OL genes such as PLP1, PTGDS, KLK6 and MBP while downregulating neuronal gene NeuroG1”.
With `O=C(O)CCCC[C@@H]1SC[C@@H]2NC(=O)N[C@@H]21` [Biotin], the factor contribution in experiment [1] (negative impact) is 12; in experiment [2] (setting [9]) it was 16 and 16.5.
